biological target: T1, human farnesyl transferase (Homo sapiens, UniProt P49354+P49356); assay: inhibition of farnesyl transferase ((3H) farnesyl transfer from (3H) FPP to p21 H-ras); assay type: biochemical; conditions: not given
T1 construct: human farnesyl transferase purified from THP1 cell cultures; endogenous in cells; host or cells: THP1 cell cultures (enzyme purified from the cells)
Protocol: Farnesyl transferase activity is determined by the amount of (^3 H) farnesyl transferred from (^3 H) farnesylpyrophosphate [(^3 H) FPP] to the p21 H-ras protein. The standard reaction mixture is composed, for a final volume of […], of 50 mM Tris-HCl, 5 mM MgCl2, 5 mM dithiotreitol, 0.2% octyl b-D-glucopyranoside, 200 picomol p21 H-ras, 4.5 picomol (^3 H) FPP (activity 61000 dpm/picomol).
Reaction is initiated by adding approximately 5 ng of human farnesyl transferase purified from THP1 cell cultures. After incubation for 20 minutes at 37° C. in a microtitration plate containing 96 1-cm^3 wells per plate (Titer Plate®, Beckman), the reaction is stopped by adding 0.4 cm^3 of 0.1% SDS in methanol at 0° C. The mixture is then treated with 0.4 cm^3 of 30% trichloroacetic® acid (TCA) in methanol. The plates are left in ice for 1 hour. The precipitated contents are then retained on Filtermat®, Pharmacia), glass® fibre membranes with the filtration unit (Combi Cell Harvester®, Skatron), and rinsed with 6% trichloroacetic acid in distilled water. The membranes are dried in a microwave oven, then impregnated with scintillation medium by melting of Meltilex® (Pharmacia) under hot air, and lastly counted in cpm in a b-Plate counter® (LKB). Each test is repeated 3 times.
The unit of activity is defined as 1 picomole of (^3 H) FPP transferred to p21 H-ras in 20 minutes.
The percentage inhibition values are obtained by comparison of the tests with and without inhibitor after deduction of blanks, the IC50 values being measured on the basis of the inhibitions obtained with 9 different concentrations using Enzfitter® or Grafit® software.

Compound | IC50
COc1ccccc1C(=O)C(=O)N1C[C@@H]2[C@]3(c4ccccc4)CC[C@@H](c4ccccc43)[C@]2(C(=O)O)C1 (racemic) [Example 42, (3aRS,4SR,9SR,9aRS)-4,9-ethano-2-[2-(2-methoxyphenyl)-2-oxoacetyl]-9-phenyl-2,3,3a,4,9,9a-hexahydro-1H-benzo[f]isoindole-3a-carboxylic acid] | 8.45 µM
COC(=O)[C@]12CN(C(=O)Cc3ccccc3OC)C[C@H]1[C@@]1(c3ccccc3)CC[C@@H]2c2ccccc21 (relative stereo) [Example 1, methyl ester of (3aRS, 4SR, 9SR, 9aRS)-4,9-ethano-2-(2-methoxyphenyl)acetyl-9-phenyl-2,3,3a,4,9,9a-hexahydro-1H-benzo[f]isoindole-3a-carboxylic acid] | 0.41 µM
COc1ccccc1CC(=O)N1C[C@H]2[C@@]3(c4ccccc4)CC[C@H](c4ccccc43)[C@@]2(C(=O)O)C1 (relative stereo) [Example 2, (3aRS, 4SR, 9SR, 9aRS)-4,9-ethano-2-(2-methoxyphenyl)acetyl-9-phenyl-2,3,3a,4,9,9a-hexahydro-1H-benzo[f]isoindole-3a-carboxylic acid] | 0.31 µM

same assay, conditions: human farnesyl transferase purified from THP1 cell cultures; p21 H-ras substrate; 20 minutes at 37° C.; 9 concentrations; read-out: in vitro inhibitory activity IC50

Compound | IC50
COc1ccc(CSSCc2ccc(OC)c(CC(=O)N3CC4C5(c6ccccc6)CCC(c6ccccc65)C4(C(=O)O)C3)c2)cc1CC(=O)N1CC2C3(c4ccccc4)CCC(c4ccccc43)C2(C(=O)O)C1 (racemic) [Example 37, disulphide of (3aRS, 4SR, 9SR, 9aRS)-4,9-ethano-2-(2-methoxy-5-(mercaptomethyl)-phenyl)acetyl-9-phenyl-2,3,3a,4,9,9a-hexahydro-1H-benzo[f]isoindole-3a-carboxylic acid] | 7.4 µM
COc1ccccc1C1(C(=O)N2C[C@@H]3[C@]4(c5ccccc5)CC[C@@H](c5ccccc54)[C@]3(C(=O)O)C2)CC1 (racemic) [Example 41, (3aRS,4SR,9SR,9aRS)-4,9-ethano-2-[1-(2-methoxyphenyl)-cyclopropan-1-oyl]-9-phenyl-2,3,3a,4,9,9a-hexa-hydro-1H-benzo[f]isoindole-3a-carboxylic acid] | 1.1 µM
C=C(C(=O)N1C[C@@H]2[C@]3(c4ccccc4)CC[C@@H](c4ccccc43)[C@]2(C(=O)NOC)C1)c1ccccc1OC (racemic) [Example 44, (3aRS,4SR,9SR,9aRS)-N-methoxy-4,9-ethano-2-[2-(2-methoxyphenyl)prop-2-en-1-oyl]-9-phenyl-2,3,3a,4,9,9a-hexahydro-1H-benzo[f]isoindole-3a-carboxamide] | 0.11 µM
COc1ccccc1CC(=O)N1C[C@@H]2[C@]3(c4ccccc4)CC[C@@H](c4ccccc43)[C@]2(C(=O)NOCc2ccccc2)C1 (racemic) [Example 45, (3aRS,4SR,9SR,9aRS)-N-benzyloxy-4,9-ethano-2-(2-methoxyphenylacetyl)-9-phenyl-2,3,3a,4,9,9a-hexahydro-1H-benzo[f]isoindole-3a-carboxamide] | 1.27 µM
COc1ccccc1CC(=O)N1C[C@@H]2[C@]3(c4ccccc4)CC[C@@H](c4ccccc43)[C@]2(C(=O)NO)C1 (racemic) [Example 46, (3aRS,4SR,9SR,9aRS)-4,9-ethano-2-(2-methoxyphenylacetyl)-9-phenyl-2,3,3a,4,9,9a-hexahydro-1H-benzo[f]isoindole-3a-carbohydroxamic acid] | 1.25 µM
C/C=C(/C(=O)N1C[C@@H]2[C@]3(c4ccccc4)CC[C@@H](c4ccccc43)[C@]2(C(=O)O)C1)c1ccccc1OC (racemic) [Example 78, (3aRS,4SR,9SR,9aRS)-4,9-ethano-2-[2(E)-(2-methoxyphenyl)-2-butenoyl]-9-phenyl-2,3,3a,4,9,9a-hexahydro-1H-benzo[f]isoindole-3a-carboxylic acid] | 0.65 µM
COc1ccccc1C(C(=O)N1C[C@@H]2[C@]3(c4ccccc4)CC[C@@H](c4ccccc43)[C@]2(C(=O)O)C1)=C(C)C (racemic) [Example 79, (3aRS,4SR,9SR,9aRS)-4,9-ethano-2-[2-(2-methoxyphenyl)-3-methyl-2-butenoyl]-9-phenyl-2,3,3a,4,9,9a-hexahydro-1H-benzo[f]isoindole-3a-carboxylic acid] | 5.05 µM
COc1ccccc1CC(=O)N1C[C@H]2[C@@]3(c4ccccc4)CC[C@H](c4ccccc43)[C@@]2(C(N)=O)C1 (relative stereo) [Example 3, (3aRS, 4SR, 9SR, 9aRS)-4,9-ethano-2-(2-methoxyphenyl)acetyl-9-phenyl-2,3,3a,4,9,9a-hexahydro-1H-benzo[f]isoindole-3a-carboxamide] | 4.7 µM
COc1ccccc1CC(=O)N1C[C@H]2[C@@]3(c4ccccc4)CC[C@H](c4ccccc43)[C@@]2(C(=O)NCCN(C)C)C1 (relative stereo) [Example 4, (3aRS, 4SR, 9SR, 9aRS)-N-(2-dimethylaminoethyl)-4,9-ethano-2-(2-methoxyphenyl)acetyl-9-phenyl-2,3,3a,4,9,9a-hexahydro-1H-benzo[f]isoindole-3a-carboxamide] | 9.4 µM
CNCCNC(=O)[C@]12CN(C(=O)Cc3ccccc3OC)C[C@H]1[C@@]1(c3ccccc3)CC[C@@H]2c2ccccc21 (relative stereo) [Example 5, (3aRS, 4SR, 9SR, 9aRS)-N-(2-methylaminoethyl)-4,9-ethano-2-(2-methoxyphenyl)acetyl-9-phenyl-2,3,3a,4,9,9a-hexahydro-1H-benzo[f]isoindole-3a-carboxamide] | 7 µM
CCOC(=O)[C@]12CN(C(=O)Cc3ccccc3OC)C[C@H]1[C@@]1(c3ccccc3)CC[C@@H]2c2ccccc21 (relative stereo) [Example 10, ethyl ester of (3aRS, 4SR, 9SR, 9aRS)-4,9-ethano-2-(2-methoxyphenyl)acetyl-9-phenyl-2,3,3a,4,9,9a-hexahydro-1H-benzo[f]isoindol-3a-carboxylic acid] | 4.35 µM
COc1ccccc1CC(=O)N1C[C@H]2[C@@]3(c4ccccc4)CC[C@H](c4ccccc43)[C@@]2(NC=O)C1 (relative stereo) [Example 11, (3aRS, 4SR, 9SR, 9aRS)-3a-formylamino-4,9-ethano-2-(2-methoxyphenyl)acetyl-9-phenyl-2,3,3a,4,9,9a-hexahydro-1H-benzo[f]isoindole] | 6.95 µM
COc1ccccc1CC(=O)N1C[C@H]2[C@@]3(c4ccccc4)CC[C@H](c4ccccc43)[C@@]2(NC(=O)CN)C1 (relative stereo) [Example 12, (3aRS, 4SR, 9SR, 9aRS)-3a-glycylamino-4,9-ethano-2-(2-methoxyphenyl)acetyl-9-phenyl-2,3,3a,4,9,9a-hexahydro-1H-benzo[f]isoindole] | 7.5 µM
CCOC(=O)CC(=O)N[C@]12CN(C(=O)Cc3ccccc3OC)C[C@H]1[C@@]1(c3ccccc3)CC[C@@H]2c2ccccc21 (relative stereo) [Example 15, (3aRS, 4SR, 9SR, 9aRS)-4,9-ethano-3a-ethoxycarbonylacetylamino-2-(2-methoxyphenyl)acetyl-9-phenyl-2,3,3a,4,9,9a-hexahydro-1H-benzo[f]isoindole] | 9 µM
COc1ccccc1CC(=O)N1C[C@H]2[C@@]3(c4ccccc4)CC[C@H](c4ccccc43)[C@@]2(NC(=O)CC(=O)O)C1 (relative stereo) [Example 16, (3aRS, 4SR, 9SR, 9aRS)-4,9-ethano-3a-carboxylacetylamino-2-(2-methoxyphenyl)acetyl-9-phenyl-2,3,3a,4,9,9a-hexahydro-1H-benzo[f]isoindole] | 3.03 µM
